Data as given in patent US11352363B1, “Spiropyrrolidine derived antiviral agents” (Enanta Pharmaceuticals, Inc., priority 2020, dated 2022).

Columns and labels:
SARS-CoV-2 3CL-protease = SARS-CoV-2 3CL-protease (Severe acute respiratory syndrome coronavirus 2 (2019-nCoV) (SARS-CoV-2), UniProt P0DTD1); assay: SARS-CoV-2 3C-like (3CL) protease fluorescence assay (FRET); type: biochemical; settings: read-out: FRET IC50
[1] = tested on: 229E human corona virus (hCoV); assay: 229E live virus assay; type: cell-based, hCoV-229E; settings: Human coronavirus 229E, MRC5, 144 h, read-out: 229E EC50

SMILES	IC50 (SARS-CoV-2 3CL-protease)	EC50 [1]
CN(C(=O)c1cc2c(F)cc(F)cc2[nH]1)[C@@H](CC(C)(C)C)C(=O)N1C[C@]2(C[C@H]1C#N)C(=O)Nc1ccccc12 [Compound 88]	< 100 nM	
CN(C(=O)OCc1ccccc1)[C@@H](CC1CCC1)C(=O)N1C[C@]2(C[C@H]1C#N)C(=O)Nc1ccccc12 [Compound 89]	< 100 nM	
CCN(C(=O)OCc1ccccc1)[C@@H](CC(C)C)C(=O)N1C[C@]2(C[C@H]1C#N)C(=O)Nc1ccccc12 [Compound 90]	< 100 nM	
CN(C(=O)c1cc2c(F)cc(F)cc2[nH]1)[C@@H](CC1CCC1)C(=O)N1C[C@]2(C[C@H]1C#N)C(=O)Nc1ccccc12 [Compound 91]	< 100 nM	
COc1cccc2[nH]c(C(=O)N(C)[C@@H](CC3CCC3)C(=O)N3C[C@]4(C[C@H]3C#N)C(=O)Nc3ccccc34)cc12 [Compound 92]	< 100 nM	
CN(C(=O)c1cc2c(F)cccc2[nH]1)[C@@H](CC1CCC1)C(=O)N1C[C@]2(C[C@H]1C#N)C(=O)Nc1ccccc12 [Compound 93]	< 100 nM	
CN(C(=O)c1cc2c(OC3CC3)cccc2[nH]1)[C@@H](CC1CCC1)C(=O)N1C[C@]2(C[C@H]1C#N)C(=O)Nc1ccccc12 [Compound 94]	< 100 nM	
CCN(C(=O)c1cc2c(F)cccc2[nH]1)[C@@H](CC(C)C)C(=O)N1C[C@]2(C[C@H]1C#N)C(=O)Nc1ccccc12 [Compound 95]	< 100 nM	
C=CCN(C(=O)OCc1ccccc1)[C@@H](CC(C)C)C(=O)N1C[C@]2(C[C@H]1C#N)C(=O)Nc1ccccc12 [Compound 96]	< 100 nM	
CCCN(C(=O)OCc1ccccc1)[C@@H](CC(C)C)C(=O)N1C[C@]2(C[C@H]1C#N)C(=O)Nc1ccccc12 [Compound 97]	< 100 nM	
CCCN(C(=O)c1cc2c(F)cccc2[nH]1)[C@@H](CC(C)C)C(=O)N1C[C@]2(C[C@H]1C#N)C(=O)Nc1ccccc12 [Compound 98]	< 100 nM	
CCCN(C(=O)c1cc2c(F)cc(F)cc2[nH]1)[C@@H](CC(C)C)C(=O)N1C[C@]2(C[C@H]1C#N)C(=O)Nc1ccccc12 [Compound 99]	< 100 nM	
CC(C)CC[C@@H](C(=O)N1C[C@]2(C[C@H]1C#N)C(=O)Nc1ccccc12)N(C)C(=O)OCc1ccccc1 [Compound 100]	< 100 nM	
CN(C(=O)OCc1ccccc1)[C@@H](CC(C)(C)F)C(=O)N1C[C@]2(C[C@H]1C#N)C(=O)Nc1ccccc12 [Compound 101]	< 100 nM	
CN(C(=O)OCc1ccccc1)[C@@H](CC1CC1)C(=O)N1C[C@]2(C[C@H]1C#N)C(=O)Nc1ccccc12 [Compound 102]	< 100 nM	
CC(C)CC[C@@H](C(=O)N1C[C@]2(C[C@H]1C#N)C(=O)Nc1ccccc12)N(C)C(=O)c1cc2c(F)cc(F)cc2[nH]1 [Compound 104]	< 100 nM	
COc1cccc2[nH]c(C(=O)N(C)[C@@H](CCC(C)C)C(=O)N3C[C@]4(C[C@H]3C#N)C(=O)Nc3ccccc34)cc12 [Compound 105]	< 100 nM	

SMILES	IC50 (SARS-CoV-2 3CL-protease)	EC50 [1]
COc1cccc2[nH]c(C(=O)N(C)[C@@H](CC3CCCC3)C(=O)N3C[C@]4(C[C@H]3C#N)C(=O)Nc3ccccc34)cc12 [Compound 106]	< 100 nM	
CN(C(=O)c1cc2c(F)cc(F)cc2[nH]1)[C@@H](CC1CCCC1)C(=O)N1C[C@]2(C[C@H]1C#N)C(=O)Nc1ccccc12 [Compound 107]	< 100 nM	
CN(C(=O)c1cc2c(OC(F)(F)F)cccc2[nH]1)[C@@H](CC1CCCC1)C(=O)N1C[C@]2(C[C@H]1C#N)C(=O)Nc1ccccc12 [Compound 108]	< 100 nM	
CN(C(=O)c1cc2c(F)cc(F)c(F)c2[nH]1)[C@@H](CC1CCCC1)C(=O)N1C[C@]2(C[C@H]1C#N)C(=O)Nc1ccccc12 [Compound 109]	< 100 nM	
CN(C(=O)c1cc2c(F)cccc2[nH]1)[C@@H](CC1CCCCC1)C(=O)N1C[C@]2(C[C@H]1C#N)C(=O)Nc1ccccc12 [Compound 110]	< 100 nM	
CN(C(=O)c1cc2c(F)cc(F)cc2[nH]1)[C@@H](CC1CCCCC1)C(=O)N1C[C@]2(C[C@H]1C#N)C(=O)Nc1ccccc12 [Compound 111]	< 100 nM	
CN(C(=O)c1cc2c(F)c(F)ccc2[nH]1)[C@@H](CC1CCCCC1)C(=O)N1C[C@]2(C[C@H]1C#N)C(=O)Nc1ccccc12 [Compound 112]	< 100 nM	
COc1cccc2[nH]c(C(=O)N(C)[C@@H](CC3CCCCC3)C(=O)N3C[C@]4(C[C@H]3C#N)C(=O)Nc3ccccc34)cc12 [Compound 113]	< 100 nM	
COc1cccc2[nH]c(C(=O)N(C)[C@@H](CC3CC3)C(=O)N3C[C@]4(C[C@H]3C#N)C(=O)Nc3ccccc34)cc12 [Compound 114]	< 100 nM	
CN(C(=O)c1cc2c(F)cc(F)cc2[nH]1)[C@@H](CC1CC1)C(=O)N1C[C@]2(C[C@H]1C#N)C(=O)Nc1ccccc12 [Compound 115]	< 100 nM	
CN(C(=O)c1cc2c(F)cccc2[nH]1)[C@@H](CC1CC1)C(=O)N1C[C@]2(C[C@H]1C#N)C(=O)Nc1ccccc12 [Compound 116]	< 100 nM	
COc1cccc2[nH]c(C(=O)N[C@@H](CC(C)C)C(=O)N3C[C@]4(C[C@H]3C=O)C(=O)N(C)c3ccccc34)cc12 [Compound 119]	< 100 nM	
COc1cccc2[nH]c(C(=O)N[C@@H](CC(C)C)C(=O)N3C[C@]4(C[C@H]3C#N)C(=O)N(C)c3ccccc34)cc12 [Compound 120]	100 to 1000 nM	
COc1cccc2[nH]c(C(=O)N(C)[C@@H](CC(C)C)C(=O)N3C[C@]4(C[C@H]3C#N)C(=O)N(C)c3ccccc34)cc12 [Compound 121]	< 100 nM	
CC(C)C[C@H](NC(=O)NCc1ccccc1)C(=O)N1C[C@]2(C[C@H]1C#N)C(=O)Nc1ccccc12 [Compound 122]	< 100 nM	
CN(C(=O)c1cnn(-c2ccccc2C(F)(F)F)c1)[C@@H](CC1CC1)C(=O)N1C[C@]2(C[C@H]1C#N)C(=O)Nc1ccccc12 [Compound 124]	< 100 nM	
[2H]C([2H])([2H])N(C(=O)c1cnn(C(C)(C)C)c1)[C@@H](CC1CC1)C(=O)N1C[C@]2(C[C@H]1C#N)C(=O)Nc1ccccc12 [Compound 125]		< 100 nM
